Test results from PMC3723905, “Glycogen Phosphorylase Inhibitor N-(3,5-Dimethyl-Benzoyl)-N’-(β-D-Glucopyranosyl)Urea Improves Glucose Tolerance under Normoglycemic and Diabetic Conditions and Rearranges Hepatic Metabolism” (PLoS ONE, 2013).

Target: T1, rabbit muscle glycogen phosphorylase (Oryctolagus cuniculus, UniProt P00489)
T1 construct: gene PYGM
T1 sequence (P00489 2-843): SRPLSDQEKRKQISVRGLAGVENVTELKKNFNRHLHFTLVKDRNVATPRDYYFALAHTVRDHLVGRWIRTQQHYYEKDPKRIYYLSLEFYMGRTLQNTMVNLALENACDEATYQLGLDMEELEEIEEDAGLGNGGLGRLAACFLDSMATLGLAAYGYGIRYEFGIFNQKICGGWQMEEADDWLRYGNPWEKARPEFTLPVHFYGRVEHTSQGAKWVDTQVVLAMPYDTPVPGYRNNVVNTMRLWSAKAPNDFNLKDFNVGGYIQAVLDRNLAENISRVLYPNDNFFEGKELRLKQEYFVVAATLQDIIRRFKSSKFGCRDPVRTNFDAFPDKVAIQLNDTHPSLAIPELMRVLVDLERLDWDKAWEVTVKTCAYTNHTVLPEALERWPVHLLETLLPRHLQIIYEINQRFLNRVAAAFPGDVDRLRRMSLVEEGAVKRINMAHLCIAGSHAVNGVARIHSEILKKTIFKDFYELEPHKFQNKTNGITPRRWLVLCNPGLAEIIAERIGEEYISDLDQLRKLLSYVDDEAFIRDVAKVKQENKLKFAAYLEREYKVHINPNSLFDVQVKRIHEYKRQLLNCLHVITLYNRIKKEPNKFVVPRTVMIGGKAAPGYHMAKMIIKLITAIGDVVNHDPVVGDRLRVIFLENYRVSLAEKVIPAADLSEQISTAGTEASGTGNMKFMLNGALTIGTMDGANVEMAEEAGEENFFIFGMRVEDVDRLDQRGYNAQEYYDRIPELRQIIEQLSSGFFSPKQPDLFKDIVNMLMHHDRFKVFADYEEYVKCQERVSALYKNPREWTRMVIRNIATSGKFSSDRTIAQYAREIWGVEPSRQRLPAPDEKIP
Assay: enzyme kinetics on purified rabbit muscle glycogen phosphorylase
Assay type: biochemical

Ki: 930 ± 50 nM
SMILES: Cc1cc(C)cc(C(=O)NC(=O)N[C@@H]2O[C@H](CO)[C@@H](O)[C@H](O)[C@H]2O)c1 [compound 4, N-(3,5-dimethyl-benzoyl)-N’-(β-D-glucopyranosyl)urea]
